Source: patent publication US10669287B2, “Curcumin-boron complex and pharmaceutical containing same” (JAPAN SCIENCE AND TECHNOLOGY AGENCY, priority 2016, dated 2020)
Like-named read-outs stand apart in the source and are kept apart here.

Assays:
[1] = Maximum wavelength λmax of photocatalysts; assay type: physicochemical
Aβ1-42 [2] = target: T1, Aβ1-42 (Homo sapiens, UniProt P05067); assay: Degree of oxygenation of pre-aggregated Aβ1-42 (MALDI-TOF MS), Test Example 10; assay type: biochemical; settings: pre-aggregated Aβ1-42 20 μM, catalyst 2 μM, 37° C., 30 minutes; for Degree of oxygenation (%) of Aβ42 (λ = 660 nm): phosphate buffer pH 7.4, 660 nm; for Degree of oxygenation (%) of Aβ42 (λ = 780 nm): phosphate buffer pH 7.4, 780 nm (14 mW)
T1 construct: phosphate buffer (pH 7.4)/cell culture solution (containing 0.1% horse serum) (1:3) containing Aβ1-42 (10 μM)
Method: (§1) Aβ1-42 isopeptide (concentration: 250 μM in 0.1% aqueous solution of trifluoroacetic acid), angiotensin IV (200 μM aqueous solution), Met-enkephalin (200 μM aqueous solution), and somatostatin (200 μM aqueous solution) were added to a phosphate buffer or phosphate buffer saline (pH 7.4) (with 0.1 M aqueous solution of sodium hydroxide, as necessary) so that a final peptide concentration of 20 μM or 40 μM (pH 7.4) was reached. Before being subjected to oxygenation reaction, the Aβ1-42 solution was incubated at 37° C. for 1 to 3 hours. The phosphate buffer containing 40 μM of Aβ was diluted with a Dulbecco's modified Eagle's medium (DMEM, Life Technologies) containing 0.1% horse serum and buffered with 25 mM of 4-(2-hydroxyethyl)-1-piperazineethanesulfonic acid (HEPES).
(§2) Solutions of the compounds with a final concentration of 2 μM were used for evaluation of oxygenation of Aβ1-42. Solutions of the compounds with a final concentration of 5 μM were used for evaluation of peptide selectivity. Each mixture was subjected to light irradiation with an LED (wavelength: 500, 660, or 780 nm) at a distance of approximately 5 to 10 cm at room temperature. A control group without light irradiation was additionally prepared. Reaction was analyzed through monitor analysis with a MALDI-TOF MS. Degree of oxygenation was determined as a ratio: degree of oxygenation (%)=(total of MS intensities for n[O] adducts)/(MS intensity for native+total of MS intensities for n[O] adducts)×100. Aliquots of each reaction solution were desalted with a ZipTip U-C18 (Merck Millipore), as necessary, before mass spectrometry.
a: A phosphate buffer (pH 7.4) solution containing pre-aggregated Aβ1-42 (20 μM, incubated at 37° C. for 3 hours) and a catalyst (2 μM) was subjected to light irradiation (wavelength: 660 nm) at 37° C. for 30 minutes. Thereafter, the reaction mixture was analyzed by using a MALDI-TOF MS.
a: A phosphate buffer (pH 7.4) containing pre-aggregated Aβ1-42 (20 μM, obtained through incubation at 37° C. for 3 hours) and a catalyst (2 μM) were subjected to light irradiation at 780 nm (14 mW) at 37° C. for 30 minutes. The reaction mixture was analyzed by using a MALDI-TOF MS.

Aβ1-42 [3] = target: T1, Aβ1-42; assay: Oxygenation under mouse skin, Test Example 7; assay type: in vivo; settings: microtube with Aβ1-42 20 μM aggregated 3 hours, implanted in back skin, LED 780 nm, 30 minutes
Method: A microtube containing a phosphate buffer containing Aβ1-42 (20 μM, aggregated in advance for 3 hours) and the compound E or a compound 3 [9-(6-bromo-3-methyl-1,3-benzotriazol-3-ium-2-yl)-julolidine] was implanted in the back skin of a wild mouse, and light irradiation with an LED lamp was performed from the outside of the mouse body at a wavelength of 780 nm for 30 minutes (FIG. 10). As a control experiment, another microtube containing the same components (Aβ1-42 (20 μM, aggregated in advance for 3 hours) and the compound E or the compound 3) was directly subjected to light irradiation outside of the mouse body. The reaction mixture was analyzed by using a MALDI-TOF MS, and then subjected to ZipTip treatment for analysis. The percentage of oxygenation ratio was calculated from the percentage of oxygenation ratio under the skin and the oxygenation ratio outside of the skin “[oxygenation ratio under mouse skin/oxygenation ratio outside of mouse skin]×100”.

Aβ1-42 [4] = target: T1, Aβ1-42; assay: In vitro oxygenation experiment using Aβ1-42 as a substrate (MALDI-TOF MS), Test Example 1; assay type: biochemical; settings: test compound 1 μM, Aβ1-42 10 μM, 37° C.
Method: An in vitro oxygenation experiment using Aβ1-42 as a substrate was conducted to confirm that each of the inventive compounds actually have Aβ oxygenation activity. A test compound (1 μM in each case) was added to phosphate buffer (pH 7.4)/cell culture solution (containing 0.1% horse serum) (1:3) containing Aβ1-42 (10 μM), and incubated under LED irradiation (wavelength: 660 nm, 730 nm) at 37° C., and then the reaction was tracked by using a mass spectrometer (MALDI-TOF MS). The native Aβ1-42 and the Na^+ adduct were mainly observed before light irradiation. After light irradiation, an ion peak indicating the presence of the oxygenated form was observed over time (FIG. 1, FIG. 2).

[5] = Stability of catalyst in neutral phosphate buffer without or under light irradiation (HPLC), Test Example 5; assay type: physicochemical; settings: under light irradiation (660 nm)
Method: A neutral phosphate buffer containing a catalyst was incubated without light irradiation or under light irradiation (660 nm), and thereafter ethanol containing benzyl alcohol (as an internal standard) was added thereto, and analysis was performed by using HPLC.

PC 12 cells [6] = assay type: cell-based
Method: Rat pheochromocytoma PC 12 cells were suspended with DMEM containing 5% horse serum and 10% fetal bovine serum, seeded in a poly-D-lysine-coated 96-well plate at a concentration of 10,000 cells per well, and incubated in a 5% carbon dioxide atmosphere at 37° C. for 3 days. After the solvent was removed, the cells were washed with 150 μL of serum-free DMEM, and DMEM (75 μL) containing 0.1% horse serum was added thereto. Thereafter, the 96-well plate was incubated in a 5% carbon dioxide atmosphere at 37° C. for 1 day for use in oxygenation reaction. In oxygenation reaction, the compound E (100 μM dimethyl sulfoxide solution) was added to a phosphate buffer saline containing Aβ (aggregated in advance for 3 hours, 40 μM) and 25 μL of the above cell solution (final concentration of Aβ: 10 μM, final concentration of compound E: 1 μM). The mixture was irradiated with an LED (wavelength: 780 nm) at a distance of approximately 5 cm at 37° C. for 5 minutes. The cells were incubated in a 5% carbon dioxide atmosphere at 37° C. for 48 hours. The cell viability was measured by using the Cell Count Reagent SF (NACALAI TESQUE, INC., Kyoto, Japan) with WST-8 (2-(2-methoxy-4-nitrophenyl)-3-(4-nitrophenyl)-5-(2,4-disulfophenyl)-2H-tetrazolium).
b: LC50 (dark) indicates the toxicity of a compound itself, and LC50 (light) indicates the phototoxicity of a compound. The PC 12 cells were placed in dark or subjected to photocatalytic treatment under light irradiation (wavelength: 660 nm), and incubated at 37° C. for 5 minutes, and then in a 5% carbon dioxide atmosphere at 37° C. for 48 hours, for which the cell viability was analyzed (n=5, mean±SEM).
b: The PC 12 cells were treated together with a photocatalyst (1 μM) at 37° C. for 5 minutes in dark or under light irradiation (wavelength: 780 nm), and thereafter the cell viability was analyzed (n=3, mean±SEM).

PC 12 cells [7] = assay: Cytotoxicity under light irradiation, WST-8 cell viability, Test Example 2; assay type: cell-based, rat; settings: LED 660 nm, 10 mW, 5 minutes, then 48 hours
Method: A culture medium for rat adrenal medulla-derived pheochromocytoma PC 12 cells (purchased from RIKEN, Japan) seeded on a poly-D-lysine-coated 96-well plate was replaced with 75 μL of a Dulbecco's modified Eagle's medium containing 0.1% horse serum, and the culture was incubated in a 5% CO2 atmosphere at 37° C. for 1 day, and 25 μL of a phosphate buffer saline (pH 7.4) containing a inventive compound was then added thereto. Thereafter, the mixed solution was incubated under LED irradiation (wavelength: 660 nm, 10 mW) (without light irradiation for dark) at 37° C. for 5 minutes. Further, the cell culture plate containing the reaction solution was incubated in a 5% CO2 atmosphere at 37° C. for 48 hours. Finally, the Cell Count Reagent SF (10 μL: purchased from NACALAI TESQUE, INC.) containing WST-8 was added, and the culture was incubated in a 5% CO2 atmosphere at 37° C. for 3 hours, and thereafter the cell viability was determined from the absorbance at 450 nm (reference wavelength: 655 nm).

Arctic Aβ1-38 = target: T2, Arctic Aβ1-38 (Homo sapiens, UniProt P05067, E693G); assay type: biochemical; settings: mouse brain lysate, riboflavin, light irradiation
T2 construct: The peak intensity decreased by 36%/53%/74% for Arctic Aβ1-38; from tissue; host or cells: cerebral cortex and hippocampus of App knock-in mouse
Method: The brain excised from an eight-month-old App knock-in (App^NL-C-F/NL-C-F) mouse (Alzheimer's model mouse) was separated into the cerebral cortex, the hippocampus, and the residual brain tissues. The cerebral cortex and the hippocampus were homogenized together in a phosphate buffer saline, and the suspension was stored at −80° C. […] At an arbitrary point of time, an arbitrary aliquot of the reaction mixture was diluted with formic acid to a final concentration of 70%, concentrated, and redissolved in a 6 M aqueous solution of urea.

somatostatin (Sst) = target: T3, somatostatin (Sst) (Homo sapiens, UniProt P61278); assay: Aβ selectivity of oxygenation, Test Example 9; assay type: biochemical; settings: peptide 20 μM, riboflavin 5 μM, 500 nm, 37° C., 30 minutes
T3 construct: angiotensin-IV (AT4), Met-enkephalin (ME), or somatostatin (Sst) (20 μM in each case)
Method: as §1
as §2, with “Each mixture was subjected to light irradiation with an LED (wavelength: 500, 660, or 780 nm) at a distance of approximately 5 to 10 cm at room temperature.” left out

angiotensin-IV (AT4) = target: T4, angiotensin-IV (AT4) (Homo sapiens, UniProt P01019); assay: Aβ selectivity of oxygenation, Test Example 9; assay type: biochemical; settings: peptide 20 μM, riboflavin 5 μM, 500 nm, 37° C., 30 minutes
T4 construct: angiotensin-IV (AT4), Met-enkephalin (ME), or somatostatin (Sst) (20 μM in each case)
Method: as §1
as §2, with “Each mixture was subjected to light irradiation with an LED (wavelength: 500, 660, or 780 nm) at a distance of approximately 5 to 10 cm at room temperature.” left out

Met-enkephalin (ME) = target: T5, Met-enkephalin (ME) (Homo sapiens, UniProt P01210); assay: Aβ selectivity of oxygenation, Test Example 9; assay type: biochemical; settings: peptide 20 μM, riboflavin 5 μM, 500 nm, 37° C., 30 minutes
T5 construct: angiotensin-IV (AT4), Met-enkephalin (ME), or somatostatin (Sst) (20 μM in each case)
Method: as §1
as §2, with “Each mixture was subjected to light irradiation with an LED (wavelength: 500, 660, or 780 nm) at a distance of approximately 5 to 10 cm at room temperature.” left out

Aβ peptide = target: T6, Aβ peptide (Homo sapiens, UniProt P05067); assay: Aβ selectivity of oxygenation, Test Example 9; assay type: biochemical; settings: peptide 20 μM, riboflavin 5 μM, 500 nm, 37° C., 30 minutes
T6 construct: Aβ1-42 isopeptide (concentration: 250 μM in 0.1% aqueous solution of trifluoroacetic acid)
Method: as §1
as §2, with “Each mixture was subjected to light irradiation with an LED (wavelength: 500, 660, or 780 nm) at a distance of approximately 5 to 10 cm at room temperature.” left out

Row | Compound | Maximum wavelength λmax (nm) ([1]; Table 1) | Degree of oxygenation (%) of Aβ42 (λ = 660 nm) (Aβ1-42 [2]) | stability of catalyst (ranking) [5] | Maximum wavelength λmax (nm) ([1]; Table 2) | Degree of oxygenation (%) of Aβ42 (λ = 780 nm) (Aβ1-42 [2]) | toxicity under light irradiation (ranking) (PC 12 cells [7]) | also measured
1 | CN(C)c1ccc(/C=C/C2=CC(=C/C=C3C=CC(=[N+](C)C)C=C3)/O[B-](F)(F)O2)cc1 [CRANAD-2, (T-4)-[(1E,6E)-1,7-bis[4-(dimethylamino)phenyl]-1,6-heptadiene-3,5-dionato-κO^3,κO^5]difluoroboron, reference compound] | 579 nm | trace |  |  |  |  | 
2 | C[n+]1c2ccc(Br)cc2nn1-c1cc2c3c(c1)CCCN3CCC2 [Compound 3, 9-(6-bromo-3-methyl-1,3-benzotriazol-3-ium-2-yl)-julolidine, reference compound] | 456 nm | trace |  |  |  |  | percentage of oxygenation ratios [oxygenation ratio under mouse skin/oxygenation ratio outside of mouse skin]×100 (Aβ1-42 [3]): 12%
3 | O=C(O)CCCCCN1CCCc2cc(/C=C/C3=[O+][B-](F)(C(F)(F)F)OC(/C=C/c4cc5c6c(c4)CCCN6CCC5)=C3Br)ccc21 (centres unmarked) [Compound I] |  |  | stability was higher | 645 nm | 52% |  | oxygenation of Aβ1-42 under light irradiation (Aβ1-42 [4]; LED irradiation at both 660 nm and 730 nm): oxygenation of the Aβ proceeded; CC50 (PC 12 cells [6]; PC 12 cells in dark, 37° C., 5 minutes, n=3, mean±SEM, Table 2, read-out: LC50 (dark)): > 10000 nM; CC50 (PC 12 cells [6]; PC 12 cells, light irradiation 780 nm, 37° C., 5 minutes, n=3, mean±SEM, Table 2, read-out: LC50 (light)): 1670 nM
4 | CN(C)c1ccc(/C=C/C2=C(Br)C(/C=C/c3ccc4c(c3)CCCN4CCCCCC(=O)O)=[O+][B-](F)(C(F)(F)C(F)(F)F)O2)cc1 (centres unmarked) [Compound J] | 622 nm | 79% | higher in the order of BFCF3 (compound K)<BFCF2CF3 (compound J) | 620 nm | 41% | higher in the order of the compound J, the compound K, and the compound L | 
5 | CN(C)c1ccc(/C=C/C2=C(Br)C(/C=C/c3ccc4c(c3)CCCN4CCCCCC(=O)O)=[O+][B-](F)(F)O2)cc1 [Compound L] | 623 nm | 73% | stability was the lowest |  |  | higher in the order of the compound J, the compound K, and the compound L | CC50 (PC 12 cells [6]): 24 nM
6 | O=C(O)CCCCCN1CCCc2cc(/C=C/C3=[O+][B-](F)(C(F)(F)C(F)(F)C(F)(F)F)OC(/C=C/c4cc5c6c(c4)CCCN6CCC5)=C3Br)ccc21 (centres unmarked) [Compound S] |  |  |  | 633 nm | 37% |  | CC50 (PC 12 cells [6]): > 10000 nM
7 | CN(C)c1ccc(/C=C/C2=C(I)C(/C=C/c3ccc4c(c3)CCCN4CCCCCC(=O)O)=[O+][B-](F)(C(F)(F)F)O2)cc1 (centres unmarked) [M] |  |  |  |  |  | iodine provides more reduced toxicity than in the case of bromine | oxygenation of Aβ1-42 under light irradiation (Aβ1-42 [4]; LED irradiation at 730 nm): oxygenation of the Aβ proceeded
8 | Cc1cc2nc3c(=O)[nH]c(=O)nc-3n(C[C@H](O)[C@H](O)[C@H](O)CO)c2cc1C [riboflavin, reference compound] |  |  |  |  |  |  | consumption of Aβ1-38 (Arctic Aβ1-38): consumed to a significant degree; yield of oxygenated somatostatin (somatostatin (Sst)): 60%; yield of oxygenated angiotensin-IV (angiotensin-IV (AT4)): 35%; yield of oxygenated Met-enkephalin (Met-enkephalin (ME)): 50%; yield of oxygenated Aβ (Aβ peptide): 43%
